Measured values as given in US12503476B2, “Ring-fused 2-pyridone compounds, methods for preparation thereof and their use in the treatment and/or prevention of a disease involving gram-positive bacteria” (QURETECH BIO AB, priority 2020, dated 2025).
Converted amounts (≈) assume the structure as drawn. Like-named read-outs stand apart in the source and are kept apart here.

Legend:
MRSA [1] = test: Minimum Bactericidal Concentration (MBC) assay, MRSA; settings: compound alone, no antibiotic, MIC cultures plated on BHI, second figure of MIC/MBC, n.d. = activity not observed at the concentrations tested; for MBC: Staphylococcus aureus, MRSA, read-out: MBC for MRSA, Table 3; for MBC for MRSA: Table 3
E. faecalis [2] = test: Minimum Inhibitory Concentration (MIC) assay, E. faecalis; assay type: cell-based, Enterococcus faecalis; settings: for MIC: first figure of MIC/MBC, read-out: MIC for E. faecalis; for Growth inhibition of the pathogen of interest compared to the compound of Example 14 in WO 2018/229141: conclusion from Table 3 (E. faecalis and MRSA)
Method: (§1) The cultures (200 μl) were incubated at 37° C. for 24 h. […] The MIC was measured in micromolar concentration, i.e. μM. Objectively, this was determined by measuring the optical density (i.e. OD) of the test cultures at 600 nm using a spectrophotometer. As used herein, OD600 stands for optical density at a wavelength of 600 nm (i.e. 600 nanometers).

MRSA [3] = test: Minimum Inhibitory Concentration (MIC) assay, MRSA; assay type: cell-based, Methicillin-resistant Staphylococcus aureus; settings: 24 h, no antibiotic, 37° C., n.d. = activity not observed at the concentrations tested, read-out: MIC for MRSA
Method: as §1

E. faecalis OG1RF = test: Combined activity with gentamicin, vancomycin or ampicillin, E. faecalis OG1RF; assay type: cell-based, Enterococcus faecalis; settings: gentamicin 16 μg/ml; for E. faecalis activity, combination with gentamicin compared to gentamicin alone, compound alone and comparative example alone / E. faecalis activity, combination with gentamicin compared to the combination of the comparative example and gentamicin: subinhibitory compound 1-4 μM, OD600 24 h; for Synergistic effect when combined with gentamicin: 24 h
Method: […]. The concentrations used in the experiments with E. faecalis OG1RF were 16 μg/ml gentamicin, 1 μg/ml vancomycin or 1 μg/ml ampicillin. In experiments where combinations were tested against MRSA 1369, 0.05 μg/ml gentamicin, 1 μg/ml vancomycin or 16 μg/ml ampicillin was used.
Bacterial cultures (190 μl) at a starting OD=0.001 at OD600 were incubated together with either subinhibitory concentrations of gentamicin/vancomycin/ampicillin or compound alone, or a combination of the two. The cultures (200 μl) were incubated at 37° C. for 24 h. A control sample without compound and gentamicin/vancomycin/ampicillin but containing compound vehicle (DMSO) and gentamicin/vancomycin/ampicillin vehicle (MQ water) was performed the same way. After 24 h, the effect on bacterial growth compared to untreated control samples was determined by measuring optical density at 600 nm with a spectrophotometer.
[…]. MIC/MBC values for the compounds administered alone are also shown for comparison. Unless otherwise stated, the compound was provided in a concentration of 1 μM.

E. faecalis [4] = test: Minimum Bactericidal Concentration (MBC) assay, E. faecalis; settings: Enterococcus faecalis, read-out: MBC for E. faecalis
[5] = Enterococcus faecalis, 24 h, Table 3, compound alone, no antibiotic, 24 h, 37° C., OD600, n.d. = activity not observed at the concentrations tested
[6] = Staphylococcus aureus, MRSA, Table 3, compound alone, OD600, first figure of MIC/MBC
[7] = compound 1 μM, n.d. = activity not observed
[8] = Enterococcus faecalis, Table 4, compound administered alone, n.d. = activity not observed
[9] = Table 3, compound alone, no antibiotic, 24 h, 37° C., OD600, n.d. = activity not observed at the concentrations tested
[10] = Table 3, compound alone, OD600, first figure of MIC/MBC

O=C(O)C12C[C@@H](c3ccc(C(F)(F)F)cc3)C1Sc1c(C3CC3)c(Cc3cccc4ccccc34)cc(=O)n12 (stereo partly drawn) [Example 8]
MBC (MRSA [1]): 10 µM (≈ 5.48 µg/mL) | MIC (E. faecalis [2]; [5]): 5 µM (≈ 2.74 µg/mL) | Growth inhibition of the pathogen of interest compared to the compound of Example 14 in WO 2018/229141 (E. faecalis [2]; compound alone): substantially similar extent or to a higher extent | MIC (MRSA [3]; [6]): 5 µM (≈ 2.74 µg/mL)

O=C(O)C12C[C@@H](c3c(Cl)cccc3Cl)C1Sc1c(C3CC3)c(Cc3cc4ccccc4s3)cc(=O)n12 (stereo partly drawn) [Example 34]
MIC (MRSA [3]; [6]): 5 µM (≈ 2.77 µg/mL)

CCCOc1ccc([C@@H]2CC3(C(=O)O)C2Sc2c(C4CC4)c(Cc4cccc5ccccc45)cc(=O)n23)cc1C (stereo partly drawn) [Example 22]
E. faecalis activity, combination with gentamicin compared to gentamicin alone, compound alone and comparative example alone (E. faecalis OG1RF): much larger extent | E. faecalis activity, combination with gentamicin compared to the combination of the comparative example and gentamicin (E. faecalis OG1RF): much larger extent | MBC (MRSA [1]): 4 µM (≈ 2.21 µg/mL) | MIC (E. faecalis [2]; [5]): 4 µM (≈ 2.21 µg/mL) | Growth inhibition of the pathogen of interest compared to the compound of Example 14 in WO 2018/229141 (E. faecalis [2]; compound alone): substantially similar extent or to a higher extent | MIC (MRSA [3]; [6]): 4 µM (≈ 2.21 µg/mL)

O=C(O)C12C[C@@H](c3cccc(Br)c3)C1Sc1c(C3CC3)c(Cc3cccc4ccccc34)cc(=O)n12 (stereo partly drawn) [Example 17]
OD600 at 24 h when combined with gentamicin (E. faecalis OG1RF; compound 1 μM): OD 600 = 0 | Synergistic effect when combined with gentamicin (E. faecalis OG1RF; [7]): Yes | E. faecalis activity, combination with gentamicin compared to gentamicin alone, compound alone and comparative example alone (E. faecalis OG1RF): much larger extent | E. faecalis activity, combination with gentamicin compared to the combination of the comparative example and gentamicin (E. faecalis OG1RF): much larger extent | MBC (MRSA [1]): 7.5 µM (≈ 4.19 µg/mL) | MIC (E. faecalis [2]; [5]): 4 µM (≈ 2.23 µg/mL) | MIC (E. faecalis [2]; [8]): 4 µM (≈ 2.23 µg/mL) | Growth inhibition of the pathogen of interest compared to the compound of Example 14 in WO 2018/229141 (E. faecalis [2]; compound alone): substantially similar extent or to a higher extent | MBC (E. faecalis [4]): 25 µM (≈ 14 µg/mL) | MIC (MRSA [3]; [6]): 3 µM (≈ 1.68 µg/mL)

O=c1cc(Cc2cccc3ccccc23)c(C2CC2)c2n1C(CCB(O)O)CS2 (stereo not drawn) [Example 35]
OD600 at 24 h when combined with gentamicin (E. faecalis OG1RF; compound 25 μM): OD600 = 0 | Synergistic effect when combined with gentamicin (E. faecalis OG1RF; compound 25 μM): Yes | MIC (MRSA [3]; [6]): 50 µM (≈ 20.3 µg/mL)

COc1c(Cc2cccc3ccccc23)c(N(C)C)c(=O)n2c1SC1[C@H](c3cccc(C(F)(F)F)c3)CC12C(=O)O (stereo partly drawn) [Example 29]
MBC (MRSA [1]): 7.5 µM (≈ 4.35 µg/mL) | MIC (E. faecalis [2]; [5]): 25 µM (≈ 14.5 µg/mL) | MIC (MRSA [3]; [6]): 7.5 µM (≈ 4.35 µg/mL)

O=c1cc(Cc2cccc3ccccc23)c(-c2cccc(C(F)(F)F)c2)c2n1C(CCB(O)O)CS2 (stereo not drawn) [Example 37]
OD600 at 24 h when combined with gentamicin (E. faecalis OG1RF; compound 10 μM): OD600 = 0 | Synergistic effect when combined with gentamicin (E. faecalis OG1RF; compound 10 μM): Yes | MIC (MRSA [3]; [6]): 50 µM (≈ 25.5 µg/mL)

O=C(O)C12C[C@@H](c3cccc(Cl)c3)C1Sc1c(C3CC3)c(Cc3cccc4ccccc34)cc(=O)n12 (stereo partly drawn) [Example 10]
MBC for MRSA (MRSA [1]): 10 µM | MIC (E. faecalis [2]; [9]): 10 µM (≈ 5.14 µg/mL) | MIC (MRSA [3]; [10]): 5 µM (≈ 2.57 µg/mL)

Cc1cc(C)cc([C@@H]2CC3(C(=O)O)C2Sc2c(C4CC4)c(Cc4cccc(Cl)c4Cl)cc(=O)n23)c1 (stereo partly drawn) [Example 31]
MIC (MRSA [3]; [6]): 5 µM (≈ 2.63 µg/mL)

O=C(O)C12C[C@@H](Sc3ccccc3)C1Sc1c(C3CC3)c(Cc3cccc4ccccc34)cc(=O)n12 (stereo partly drawn) [Example 27]
MIC (MRSA [3]; [6]): 10 µM (≈ 5.12 µg/mL)

O=C(O)C12C[C@H](Sc3ccccc3)C1Sc1c(C3CC3)c(Cc3cccc4ccccc34)cc(=O)n12 (stereo partly drawn) [Example 28]
MIC (MRSA [3]; [6]): 25 µM (≈ 12.8 µg/mL)

CCCCOc1ccc([C@@H]2CC3(C(=O)O)C2Sc2c(C4CC4)c(Cc4cccc5ccccc45)cc(=O)n23)cc1C (stereo partly drawn) [Example 23]
OD600 at 24 h when combined with gentamicin (E. faecalis OG1RF; compound 1 μM): OD600 = 0 | Synergistic effect when combined with gentamicin (E. faecalis OG1RF; [7]): Yes | MBC (MRSA [1]): 5 µM (≈ 2.83 µg/mL) | MIC (E. faecalis [2]; [5]): 3 µM (≈ 1.7 µg/mL) | MIC (E. faecalis [2]; [8]): 3 µM (≈ 1.7 µg/mL) | Growth inhibition of the pathogen of interest compared to the compound of Example 14 in WO 2018/229141 (E. faecalis [2]; compound alone): substantially similar extent or to a higher extent | MIC (MRSA [3]; [6]): 3 µM (≈ 1.7 µg/mL)

O=C(O)C12C[C@@H](c3cccc(C(F)(F)F)c3)C1Sc1c(C3CC3)c(Cc3cccc4ccccc34)cc(=O)n12 (single isomer, unassigned) [Example 2]
OD600 at 24 h when combined with gentamicin (E. faecalis OG1RF; compound 1 μM): OD600 = 0.1 | Synergistic effect when combined with gentamicin (E. faecalis OG1RF; [7]): Yes | MBC for MRSA (MRSA [1]): 10 µM | MIC (E. faecalis [2]; [9]): 10 µM (≈ 5.48 µg/mL) | MIC (E. faecalis [2]; Table 4, compound administered alone, n.d. = activity not observed): 10 µM (≈ 5.48 µg/mL) | MIC (MRSA [3]; [10]): 5 µM (≈ 2.74 µg/mL)

O=C(O)C12C[C@H](c3cc(Cl)cc(Cl)c3)C1Sc1c(C3CC3)c(Cc3cccc4ccccc34)cc(=O)n12 (stereo partly drawn) [Example 16]
MIC (E. faecalis [2]; [5]): 10 µM (≈ 5.48 µg/mL) | MIC (MRSA [3]; [6]): 10 µM (≈ 5.48 µg/mL)
